Reference: patent US20040209283A1, “Continuous-read assay for the detection of de novo HCV RNA polymerase activity” (Pfizer Inc., priority 2002, published 2004)

How the values were obtained:
double-stranded NR-2 = experiment: Binding of PicoGreen to double-stranded NR-2 at varying buffer component concentrations (fluorescence intensity); details: for Fluorescence Intensity (% of control ± SD; n = 2): 7 nM double-stranded NR2, 600 nM PicoGreen; for effect on the binding of PicoGreen to the double-stranded template: at the concentrations tested
Procedure: To assess the effect of buffer component concentration on the binding of PicoGreen® to double-stranded NR-2, mixtures containing 7 nM double-stranded NR2, 600 nM PicoGreen®, and varying concentrations of the buffer components were prepared, and the fluorescence intensities of these mixtures were measured. These mixtures were prepared using between 4 fold less to 1.25 to 2 fold more of the individual buffer components (relative to the amount of the components used in the reactions described in Example 1).

C delta 21 NS5B = experiment: Continuous-read fluorescence assay of de novo NS5B polymerase activity; type: biochemical, Hepatitis C virus (HCV)
Procedure: Reactions were prepared by first placing 0.5 μL of 100% DMSO into the wells of an assay plate (Corning, black, 384-well, NBS #3654). In reactions in which modulators or inhibitors of RNA polymerase activity are to be identified, a test compound may be added to the DMSO. A solution (Solution-1) containing 162 nM of C delta 21 NS5B and 28 nM NR-2 in an assay buffer comprising 20 mM Tris-HCl, pH 7.5; 100 mM ammonium acetate; 2 mM MnCl2; 10 mM DTT; and 2 mM CHAPS, was then prepared and incubated at ambient temperature for a minimum of 15 minutes. During this incubation, a second solution (Solution-2) was prepared by mixing 76 nM of PicoGreen® with 2.7 μM UTP, 2.7 μM CTP, 2.7 μM ATP, 67 μM GTP in the assay buffer that is described above. Next, 10 μL of Solution-1 was added to the wells of the assay plate containing DMSO and the plate was incubated for 15 minutes at ambient temperature. […]
The reactions were monitored on a LJL Analyst (Molecular Devices Corp.; Sunnyvale, Calif.), which excited the PicoGreen® at 485 nm and detected PicoGreen® fluorescence at 530 nm.
The effect of increasing concentrations of PicoGreen® on reaction kinetics was also assessed. […] The calculated initial velocity (v0=span x kexp) increased as the concentration of PicoGreen® was increased from 50 to 600 nM, and appeared to plateau at between 600 and 800 nM PicoGreen® (FIG. 5C).

[1] = component final concentration 0.5 mM
[2] = component final concentration 1 mM
[3] = component final concentration 2 mM
[4] = component final concentration 4 mM

[Cl][Mn][Cl] [MnCl2]
inhibition of the binding of PicoGreen to the template (double-stranded NR-2; at 2 mM): approximately 35%
inhibition of the binding of PicoGreen to the template (double-stranded NR-2; at 4 mM): ~55%
Fluorescence Intensity (% of control ± SD; n = 2) (double-stranded NR-2; [1]): 96 ± 2 % of control
Fluorescence Intensity (% of control ± SD; n = 2) (double-stranded NR-2; [2]): 82 ± 1 % of control
Fluorescence Intensity (% of control ± SD; n = 2) (double-stranded NR-2; [3]): 65 ± 1 % of control
Fluorescence Intensity (% of control ± SD; n = 2) (double-stranded NR-2; [4]): 45 ± 2 % of control

C[C@H](CCC(=O)NCCC[N+](C)(C)CCCS(=O)(=O)[O-])[C@H]1CC[C@H]2[C@@H]3[C@H](O)C[C@@H]4C[C@H](O)CC[C@]4(C)[C@H]3C[C@H](O)[C@]12C [CHAPS]
effect on the binding of PicoGreen to the double-stranded template (double-stranded NR-2): Neither DTT nor chaps affected the binding
Fluorescence Intensity (% of control ± SD; n = 2) (double-stranded NR-2; [1]): 98 ± 3 % of control
Fluorescence Intensity (% of control ± SD; n = 2) (double-stranded NR-2; [2]): 96 ± 1 % of control
Fluorescence Intensity (% of control ± SD; n = 2) (double-stranded NR-2; [3]): 96 ± 1 % of control
Fluorescence Intensity (% of control ± SD; n = 2) (double-stranded NR-2; [4]): 102 ± 1 % of control

CC(=O)O.N [Ammonium Acetate]
effect on NS5B activity (C delta 21 NS5B; 100 mM ammonium acetate): appeared to enhance NS5B activity
inhibition of PicoGreen binding (double-stranded NR-2; at 100 mM): 5%
inhibition of PicoGreen binding (double-stranded NR-2; at 125 mM): 10%
Fluorescence Intensity (% of control ± SD; n = 2) (double-stranded NR-2; component final concentration 12.5 mM): 105 ± 1 % of control
Fluorescence Intensity (% of control ± SD; n = 2) (double-stranded NR-2; component final concentration 25 mM): 103 ± 1 % of control
Fluorescence Intensity (% of control ± SD; n = 2) (double-stranded NR-2; component final concentration 50 mM): 109 ± 1 % of control
Fluorescence Intensity (% of control ± SD; n = 2) (double-stranded NR-2; component final concentration 100 mM): 95 ± 1 % of control
Fluorescence Intensity (% of control ± SD; n = 2) (double-stranded NR-2; component final concentration 125 mM): 89 ± 2 % of control

CN(C)CCCN(CCCN(C)C)c1cc(C=C2Sc3ccccc3N2C)c2ccccc2[n+]1-c1ccccc1 [PicoGreen®, reference compound]
change of experimental rate constant (kexp) of the first-order reaction (C delta 21 NS5B; at 600 nM PicoGreen): slightly less than a two-fold decrease

O[C@@H](CS)[C@@H](O)CS [DTT]
effect on the binding of PicoGreen to the double-stranded template (double-stranded NR-2): Neither DTT nor chaps affected the binding
Fluorescence Intensity (% of control ± SD; n = 2) (double-stranded NR-2; component final concentration 2.5 mM): 98 ± 5 % of control
Fluorescence Intensity (% of control ± SD; n = 2) (double-stranded NR-2; component final concentration 5 mM): 100 ± 2 % of control
Fluorescence Intensity (% of control ± SD; n = 2) (double-stranded NR-2; component final concentration 10 mM): 100 ± 1 % of control
Fluorescence Intensity (% of control ± SD; n = 2) (double-stranded NR-2; component final concentration 20 mM): 96 ± 3 % of control
